Experimental data taken from paper PMC5578959, “Selective LRRK2 kinase inhibition reduces phosphorylation of endogenous Rab10 and Rab12 in human peripheral mononuclear blood cells” (Scientific Reports, 2017).

Tests used:
LRRK2-pSer935 = biological target: T1, LRRK2-pSer935 (Homo sapiens, UniProt Q5S007); assay: Western Blot, cultured immune stimulated human PBMCs; type: cell-based; details: 100 nM, 1hr and 24hrs, n = 10 donors
T1 construct: human primary cells expressing endogenous levels of LRRK2; endogenous in cells; host or cells: human PBMCs from healthy donors
Experimental: PBMC were isolated from fresh blood collected within a maximal time of 4 hours after blood collection. Leucosep tubes (Greiner 227290) was added 15 ml Ficoll (GE Healthcare 17-440-03) and spun 30 s at 1000 × g. Blood was diluted 1:1 using D-PBS 1X (Gibco 14190), transfered to the Leucosep and centrifuged at 800 g for 15 min without brake. The upper layer corresponding to the diluted plasma was removed and the PBMC layer collected using a pipette or by pouring into a clean BD Falcon 50 ml tube. Cells were re-suspended and washed four times with 10 ml of D-PBS 1X (Gibco 14190) followed by centrifugation at 250 g for 10 min with brake at room temperature. The supernatant was discarded and the cells re-suspended in Complete medium equilibrated to 37 °C. The number of dead and living cells were counted on a Nucleocounter and used to calculate percent viability. […]
HEK293 cells were plated at a density of 1 × 10^6 cells/well in 6-well plates pre-coated for 1 hr at 37 °C with poly-L-lysin. […] The proteins were visually detected by infrared imaging using Odyssey CLx (LI-COR, Nebraska, US). Membranes were scanned and band intensities were quantified using the Image Studio version 3.1.4 (LI-COR, Nebraska).

AKT1 = system: T2, AKT1; assay: KiNativ profiling in human PBMCs; type: binding; details: ATP Loop
T2 construct: purchased ActivX Technologies (KiNativ)
Experimental: (§1) Compounds were shipped to ActivX Technologies (San Diego, US) where LRRK2 target engagement and broad kinase profiling was performed using KiNativ™ procedures. Live cell treatment of human peripheral blood mononuclear cells (PBMCs) at two compound concentrations (1 µM and 0.1 µM) were used to evaluate and compare in vitro target engagement and kinase selectivity, respectively (see Supplementary File 1).

BARK1 = system: T3, BARK1; assay: KiNativ profiling in human PBMCs; type: binding; details: Lys2
T3 construct: purchased ActivX Technologies (KiNativ)
Experimental: as §1

FYN,SRC,YES = assay: KiNativ profiling in human PBMCs; type: binding; details: Activation Loop
Experimental: as §1

CaMK1a = system: T4, CaMK1a; assay: KiNativ profiling in human PBMCs; type: binding
T4 construct: purchased ActivX Technologies (KiNativ)
Experimental: as §1

MARK3 = system: T5, MARK3; assay: KiNativ profiling in human PBMCs; type: binding; details: Lys1
T5 construct: purchased ActivX Technologies (KiNativ)
Experimental: as §1

NEK1 = system: T6, NEK1; assay: KiNativ profiling in human PBMCs; type: binding; details: Lys2
T6 construct: purchased ActivX Technologies (KiNativ)
Experimental: as §1

PIK3C3 = system: T7, PIK3C3; assay: KiNativ profiling in human PBMCs; type: binding; details: ATP
T7 construct: purchased ActivX Technologies (KiNativ)
Experimental: as §1

MSK1 domain1 = system: T8, MSK1 domain1; assay: KiNativ profiling in human PBMCs; type: binding; details: Lys2
T8 construct: MSK1 domain1; purchased ActivX Technologies (KiNativ)
Experimental: as §1

IKKe = system: T9, IKKe; assay: KiNativ profiling in human PBMCs; type: binding; details: Lys1
T9 construct: purchased ActivX Technologies (KiNativ)
Experimental: as §1

MAP3K2 = system: T10, MAP3K2; assay: KiNativ profiling in human PBMCs; type: binding; details: Lys1
T10 construct: purchased ActivX Technologies (KiNativ)
Experimental: as §1

IRAK3 = system: T11, IRAK3; assay: KiNativ profiling in human PBMCs; type: binding; details: Lys1
T11 construct: purchased ActivX Technologies (KiNativ)
Experimental: as §1

IRAK4 = system: T12, IRAK4; assay: KiNativ profiling in human PBMCs; type: binding
T12 construct: purchased ActivX Technologies (KiNativ)
Experimental: as §1

Rab10-pThr73 = assay: Western Blot, cultured immune stimulated human PBMCs; type: cell-based; details: 100 nM
Experimental: Freshly isolated PBMCs were plated at a density ranging from 7–20 × 10^6 cells in 10 cm petri dishes (Costar 3262) in RPMI-1640 media (Gibco 61870–010) supplemented with 10% non-heat inactivated FBS, 5 ml Antimycotic (Sigma cat:5965) with or without an immune stimulation cocktail consisting of 400 nM phorbol 12-myristate 13-acetate (PMA) and 100 ng/ml interferon-γ (INF-γ). After 48 hrs in culture the cultures were added a fifth of the volume media containing 5x the final concentration of the respective LRRK2 inhibitor with or without PMA and interferon-γ. […] After 72 hrs in culture the PBMC’s were harvested, pelleted and fresh-frozen on dry-ice. An aliquot of PBMCs was used for assessment of PBMC yield and viability.
Cell pellets were resuspended and solubilized in 100 µL lysis buffer (50 mM Tris hydrochloride, 1 mM magnesium chloride, 1% Triton, 0.1% sodium dodecyl sulfate (SDS), pH 8.0) on ice for 20 minutes and then centrifuged at 20,000 g for 30 minutes at 4 °C. The solubilized crude cell lysate was size mobility separated by SDS-polyacrylamide gel electrophoresis (SDS-PAGE). LRRK2 was separated on a 3–8% Tris-Acetate gel (NuPAGE® Tris-Acetate Mini Gels, Life Technologies, Paisley, UK) and Rab10 and Rab12 were separated using a NuPAGE® Novex 4–12% Bis-Tris Gel (Invitrogen, California, US). An amount of 10 µg total protein was loaded in each well. Proteins were transferred to immobilon-FL PVDF membranes (Millipore, Billerica, US). […] The proteins were visually detected by infrared imaging using Odyssey CLx (LI-COR, Nebraska, US). Membranes were scanned and band intensities were quantified using the Image Studio version 3.1.4 (LI-COR, Nebraska).

T1 sequence (Q5S007 whole entry): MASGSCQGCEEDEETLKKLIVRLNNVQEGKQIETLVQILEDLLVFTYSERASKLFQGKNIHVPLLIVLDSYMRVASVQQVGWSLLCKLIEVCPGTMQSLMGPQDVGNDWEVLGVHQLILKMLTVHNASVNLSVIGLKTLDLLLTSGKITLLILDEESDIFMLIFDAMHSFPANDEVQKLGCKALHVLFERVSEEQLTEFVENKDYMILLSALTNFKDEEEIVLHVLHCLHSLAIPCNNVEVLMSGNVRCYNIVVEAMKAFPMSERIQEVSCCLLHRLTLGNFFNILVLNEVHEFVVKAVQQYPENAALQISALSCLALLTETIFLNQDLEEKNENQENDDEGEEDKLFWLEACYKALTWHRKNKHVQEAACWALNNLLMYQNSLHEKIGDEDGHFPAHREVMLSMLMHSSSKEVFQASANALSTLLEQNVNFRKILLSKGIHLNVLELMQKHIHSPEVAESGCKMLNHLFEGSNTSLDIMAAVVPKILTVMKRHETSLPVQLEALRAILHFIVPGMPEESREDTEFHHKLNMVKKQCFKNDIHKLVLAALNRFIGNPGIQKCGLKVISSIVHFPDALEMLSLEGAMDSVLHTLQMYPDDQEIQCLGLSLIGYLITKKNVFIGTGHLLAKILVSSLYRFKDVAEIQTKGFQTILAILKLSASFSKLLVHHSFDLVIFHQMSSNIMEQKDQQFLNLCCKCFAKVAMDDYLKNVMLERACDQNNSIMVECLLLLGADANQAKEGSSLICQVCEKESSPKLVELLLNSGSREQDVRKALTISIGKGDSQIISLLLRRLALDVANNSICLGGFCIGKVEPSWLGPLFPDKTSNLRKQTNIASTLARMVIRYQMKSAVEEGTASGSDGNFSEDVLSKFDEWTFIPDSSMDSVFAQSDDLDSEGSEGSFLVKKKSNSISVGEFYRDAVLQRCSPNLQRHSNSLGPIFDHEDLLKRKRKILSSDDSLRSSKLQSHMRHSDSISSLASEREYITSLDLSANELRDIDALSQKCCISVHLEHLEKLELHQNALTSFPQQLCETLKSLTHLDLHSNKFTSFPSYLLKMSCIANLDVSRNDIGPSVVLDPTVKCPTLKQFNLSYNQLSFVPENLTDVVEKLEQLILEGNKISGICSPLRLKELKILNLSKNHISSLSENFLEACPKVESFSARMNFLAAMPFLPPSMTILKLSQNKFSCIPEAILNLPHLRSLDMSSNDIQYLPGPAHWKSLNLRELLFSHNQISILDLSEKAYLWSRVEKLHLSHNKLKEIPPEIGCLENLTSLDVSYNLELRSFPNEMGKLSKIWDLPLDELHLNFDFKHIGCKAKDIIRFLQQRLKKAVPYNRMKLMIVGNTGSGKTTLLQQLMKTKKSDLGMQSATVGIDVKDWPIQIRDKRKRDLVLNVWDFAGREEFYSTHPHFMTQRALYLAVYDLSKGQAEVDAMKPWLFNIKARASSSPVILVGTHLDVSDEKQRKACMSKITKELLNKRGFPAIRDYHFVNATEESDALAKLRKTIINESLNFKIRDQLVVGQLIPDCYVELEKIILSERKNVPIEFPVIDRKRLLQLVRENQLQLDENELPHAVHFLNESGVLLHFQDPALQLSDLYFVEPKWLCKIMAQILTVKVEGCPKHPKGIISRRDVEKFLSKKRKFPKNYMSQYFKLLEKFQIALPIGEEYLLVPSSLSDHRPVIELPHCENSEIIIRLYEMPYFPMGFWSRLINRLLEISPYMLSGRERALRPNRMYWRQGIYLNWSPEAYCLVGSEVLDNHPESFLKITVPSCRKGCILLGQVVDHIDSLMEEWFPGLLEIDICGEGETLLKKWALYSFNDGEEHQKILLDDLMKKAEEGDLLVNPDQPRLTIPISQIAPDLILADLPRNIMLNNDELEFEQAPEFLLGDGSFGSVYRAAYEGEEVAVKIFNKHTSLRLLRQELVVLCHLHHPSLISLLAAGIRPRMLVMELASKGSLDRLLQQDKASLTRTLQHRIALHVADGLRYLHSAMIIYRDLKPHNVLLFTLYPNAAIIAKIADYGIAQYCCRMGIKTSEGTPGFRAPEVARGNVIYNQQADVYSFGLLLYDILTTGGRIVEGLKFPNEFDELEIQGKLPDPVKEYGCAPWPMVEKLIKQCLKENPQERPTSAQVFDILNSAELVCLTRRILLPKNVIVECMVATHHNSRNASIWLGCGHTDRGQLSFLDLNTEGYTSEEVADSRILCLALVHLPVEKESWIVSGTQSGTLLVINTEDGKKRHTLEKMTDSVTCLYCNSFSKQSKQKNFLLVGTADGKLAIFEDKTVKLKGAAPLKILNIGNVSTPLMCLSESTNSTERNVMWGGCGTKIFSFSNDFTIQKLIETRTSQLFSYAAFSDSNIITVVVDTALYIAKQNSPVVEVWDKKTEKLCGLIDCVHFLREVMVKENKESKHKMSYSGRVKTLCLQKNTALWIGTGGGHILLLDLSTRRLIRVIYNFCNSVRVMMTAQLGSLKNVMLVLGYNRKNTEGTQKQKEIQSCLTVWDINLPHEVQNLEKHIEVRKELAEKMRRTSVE

For `Cc1cccc(-c2cc(Nc3ccn(C)n3)nc3[nH]cc(C#N)c23)c1` [Lu AF58786], which “LRRK2 kinase inhibition (LRRK2-pSer935/total LRRK2)” value (LRRK2-pSer935) is on record?
Its value is “confirmed”.

And the Inhibition (AKT1; 0.1µM)?
Its Inhibition is 7.0%.

What about the Inhibition (AKT1; 1µM) of the same molecule?
Its Inhibition is -7.5%.

And the Inhibition (BARK1; 0.1µM)?
Its Inhibition is 12.1%.

And the Inhibition (BARK1; 1µM)?
Its Inhibition is 6.3%.

What about the Inhibition (FYN,SRC,YES; 0.1µM) of the same molecule?
Its Inhibition is -6.7%.

And the Inhibition (FYN,SRC,YES; 1µM)?
Its Inhibition is -2.5%.

And the Inhibition (CaMK1a; 0.1µM, Lys1)?
The Inhibition was 11.0%.

What about the Inhibition (CaMK1a; 1µM, Lys1) of the same molecule?
The Inhibition was -3.0%.

And the Inhibition (MARK3; 0.1µM)?
The Inhibition was 2.1%.

And the Inhibition (MARK3; 1µM)?
The Inhibition was 3.2%.

What about the Inhibition (NEK1; 0.1µM) of the same molecule?
The Inhibition was -2.3%.

And the Inhibition (NEK1; 1µM)?
The Inhibition was -14.0%.

What about the Inhibition (PIK3C3; 0.1µM) of the same molecule?
Its Inhibition is 1.5%.

And the Inhibition (PIK3C3; 1µM)?
Its Inhibition is -10.0%.

And the Inhibition (MSK1 domain1; 0.1µM)?
The Inhibition was 15.8%.

What about the Inhibition (MSK1 domain1; 1µM) of the same molecule?
Its Inhibition is 1.9%.

What about the Inhibition (IKKe; 0.1µM) of the same molecule?
The Inhibition was 8.3%.

What about the Inhibition (IKKe; 1µM) of the same molecule?
Its Inhibition is -0.117%.

What about the Inhibition (MAP3K2; 0.1µM) of the same molecule?
The Inhibition was 26.8%.

And the Inhibition (MAP3K2; 1µM)?
The Inhibition was 18.5%.

And the Inhibition (IRAK3; 0.1µM)?
Its Inhibition is -25.6%.

And the Inhibition (IRAK3; 1µM)?
The Inhibition was 17.0%.

And the Inhibition (IRAK4; 0.1µM, Lys1)?
The Inhibition was 16.2%.

And the Inhibition (IRAK4; 0.1µM, Lys2)?
Its Inhibition is 7.0%.

And the Inhibition (IRAK4; 1µM, Lys1)?
The Inhibition was 13.3%.

And the Inhibition (IRAK4; 1µM, Lys2)?
The Inhibition was 8.9%.

What about the “inhibition of Rab10 phosphorylation (Rab10-pThr73/total Rab10)” value (shortened to “inhibition … (Rab10-pThr73/total Rab10)”) (Rab10-pThr73; 1 hr) of the same molecule?
The value was “not at 1 hr”.

What about the “inhibition … (Rab10-pThr73/total Rab10)” value (Rab10-pThr73; 24 hrs) of the same molecule?
Its value is “able to inhibit Rab10 phosphorylation at 24 hrs”.

How did the “LRRK2 kinase inhibition (LRRK2-pSer935/total LRRK2)” value (LRRK2-pSer935) turn out when `Cn1cc(-c2c[nH]c3ncnc(N4CCOCC4)c23)cc1C#N` [PFE-360] was run?
The value was “confirmed”.

What about the “% Inhibition” value (AKT1; 0.1µM) of the same molecule?
Its value is -6.3%.

What about the “% Inhibition” value (AKT1; 1µM) of the same molecule?
The value was -3.2%.

What about the “% Inhibition” value (BARK1; 0.1µM) of the same molecule?
Its value is -4.8%.

And the “% Inhibition” value (BARK1; 1µM)?
The value was -29.7%.

And the “% Inhibition” value (FYN,SRC,YES; 0.1µM)?
The value was -0.7%.

What about the “% Inhibition” value (FYN,SRC,YES; 1µM) of the same molecule?
Its value is 8.2%.

And the “% Inhibition” value (CaMK1a; 0.1µM, Lys1)?
The value was -2.5%.

And the “% Inhibition” value (CaMK1a; 0.1µM, Lys2)?
The value was -12.3%.

And the “% Inhibition” value (CaMK1a; 1µM, Lys1)?
The value was 3.5%.

What about the “% Inhibition” value (CaMK1a; 1µM, Lys2) of the same molecule?
The value was -25%.

What about the “% Inhibition” value (MARK3; 0.1µM) of the same molecule?
Its value is 4.8%.

And the “% Inhibition” value (MARK3; 1µM)?
Its value is 4.7%.

What about the “% Inhibition” value (NEK1; 0.1µM) of the same molecule?
The value was 5.9%.

And the “% Inhibition” value (NEK1; 1µM)?
The value was 2.6%.

What about the “% Inhibition” value (PIK3C3; 0.1µM, peptide TEDGGKYPVIFKHGDDLR) of the same molecule?
Its value is -2.7%.

What about the “% Inhibition” value (PIK3C3; 0.1µM, peptide TEDGGKYPVIFKHGDDLRQDQLILQIISLMDK) of the same molecule?
The value was -22.4%.

And the “% Inhibition” value (PIK3C3; 1µM, peptide TEDGGKYPVIFKHGDDLR)?
Its value is -7.9%.

And the “% Inhibition” value (PIK3C3; 1µM, peptide TEDGGKYPVIFKHGDDLRQDQLILQIISLMDK)?
Its value is -43.1%.

And the “% Inhibition” value (MSK1 domain1; 0.1µM)?
Its value is -7.8%.

What about the “% Inhibition” value (MSK1 domain1; 1µM) of the same molecule?
The value was -5.1%.

And the “% Inhibition” value (IKKe; 0.1µM)?
The value was 2.3%.

And the “% Inhibition” value (IKKe; 1µM)?
Its value is 7.7%.

What about the “% Inhibition” value (MAP3K2; 0.1µM) of the same molecule?
The value was -14.1%.

What about the “% Inhibition” value (MAP3K2; 1µM) of the same molecule?
Its value is -24.4%.

And the “% Inhibition” value (IRAK3; 0.1µM)?
Its value is -1.2%.

And the “% Inhibition” value (IRAK3; 1µM)?
The value was 3%.

What about the “% Inhibition” value (IRAK4; 0.1µM, Lys1) of the same molecule?
Its value is 4.1%.

And the “% Inhibition” value (IRAK4; 0.1µM, Lys2)?
Its value is 8%.

And the “% Inhibition” value (IRAK4; 1µM, Lys1)?
Its value is -0.3%.

And the “% Inhibition” value (IRAK4; 1µM, Lys2)?
Its value is 1.4%.

What about the “inhibition … (Rab10-pThr73/total Rab10)” value (Rab10-pThr73; 1 hr) of the same molecule?
Its value is “not at 1 hr”.

What about the “inhibition … (Rab10-pThr73/total Rab10)” value (Rab10-pThr73; 24 hrs) of the same molecule?
The value was “able to inhibit Rab10 phosphorylation at 24 hrs”.
